From PubChem BioAssay (NCI)
“And” between values parts separate entries of the source, which are not always exact repeats. Equal values may be shown once.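 Interpolation was linear, between the two tested concentrations surrounding the appropriate level; five concentrations were tested over 48 hours in 96-well plates. GI50: concentration for 50% inhibition of growth. The concentration for full growth arrest is given as TGI.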

Experiments:
Assay in all cases: growth of human tumour cells (NCI), 48 h
LOX IMVI melanoma = system: LOX IMVI melanoma
M14 melanoma = system: M14 melanoma
SF-268 CNS = system: SF-268 CNS
IGROV1 ovarian = system: IGROV1 ovarian
HCT-116 colon = system: HCT-116 colon
CAKI-1 renal = system: CAKI-1 renal
SNB-19 CNS = system: SNB-19 CNS
NCI-H460 lung = system: NCI-H460 lung
MOLT-4 leukemia = system: MOLT-4 leukemia
TK-10 renal = system: TK-10 renal

SMILES | TGI (LOX IMVI melanoma) [µM] | TGI (M14 melanoma) [µM] | GI50 (SF-268 CNS) [µM] | TGI (SF-268 CNS) | GI50 (IGROV1 ovarian) [µM] | TGI (IGROV1 ovarian) | GI50 (HCT-116 colon) [µM] | TGI (HCT-116 colon) | TGI (CAKI-1 renal) [µM] | GI50 (SNB-19 CNS) [µM] | TGI (SNB-19 CNS) | TGI (NCI-H460 lung) [µM] | GI50 (MOLT-4 leukemia) [µM] | TGI (MOLT-4 leukemia) | GI50 (TK-10 renal) [µM] | TGI (TK-10 renal) | GI50 (LOX IMVI melanoma) [µM] | GI50 (M14 melanoma) [µM] | GI50 (CAKI-1 renal) [µM] | GI50 (NCI-H460 lung) [µM]
O=[N+]([O-])c1ccc2c(N=Nc3c(O)ccc4ccccc34)c(O)cc(S(=O)(=O)O)c2c1 | > 100 | 10.5 | 23.9 | 50 µM and > 100 µM | 27.7 | 50 µM and > 100 µM | 25.6 | 50 µM and > 100 µM | 50 | 19.3 | 50 µM and > 100 µM | > 100 | 15.7 | 50 µM and > 100 µM | 87.3 | 50 µM and > 100 µM |  |  |  | 
CCOC(=O)C12CC1(C(=O)OCC)C1CCC2C1 (stereo not given) | > 100 | > 100 |  | > 100 µM |  | > 100 µM |  | > 100 µM | > 100 |  | > 100 µM | > 100 |  | > 100 µM |  | > 100 µM |  |  |  | 
Cc1ccc(NC(=O)C(=O)Cc2nc3ccccc3o2)c(C)c1 | > 100 | > 100 |  | > 100 µM |  | > 100 µM |  | > 100 µM | > 100 |  | > 100 µM | > 100 |  |  |  | > 100 µM |  |  |  | 
CCNCCNc1cc(-c2ccc(F)cc2)c(C#N)c2nc3ccccc3n12 | 3.45 | 3.63 | 3.09 | 12.8 µM | 7.26 | 22.8 µM | 2.24 | 4.34 µM | 15.4 | 4.94 | 17.8 µM | 10.8 |  |  | 2.33 | 8.45 µM | 1.82 | 1.97 | 4 | 3.36
O=C1C(c2ccccc2)=C(c2ccccc2)C(c2ccc(CCCCCCc3ccc(C4=C(c5ccccc5)C(=O)C(c5ccccc5)=C4c4ccccc4)cc3)cc2)=C1c1ccccc1 |  | > 100 |  | > 100 µM |  | > 100 µM |  | > 100 µM |  |  | > 100 µM | > 100 |  | > 100 µM |  | > 100 µM |  |  |  | 
C[Se]C(=O)CC1=C2C=C(F)C=CC2/C(=C\c2ccc(S(C)=O)cc2)C1C (stereo not given) | 0.0296 | 1.52 | < 0.01 | 0.0242 µM | 0.0972 | 3.17 µM | 0.119 | 1.64 µM | 0.478 | 0.223 | 0.767 µM | 0.526 | 0.392 | > 100 µM |  |  | 0.0141 | 0.0387 | 0.0253 | < 0.01
COc1ccc(NC(=O)C(=O)C2NC(=S)NC2=O)c(OC)c1 (stereo not given) | > 100 | > 100 |  | > 100 µM |  | > 100 µM |  | > 100 µM |  |  | > 100 µM | > 100 |  | > 100 µM |  | > 100 µM |  |  |  | 
CC1OC(O)C(O)C(O)C1O (stereo not given) | > 100 | > 100 |  | > 100 µM |  | > 100 µM |  | > 100 µM | > 100 |  | > 100 µM | > 100 |  |  |  | > 100 µM |  |  |  | 
FC(F)(F)c1ccc(-c2cnc(Br)nc2NC2CCCCCC2)cc1 |  | > 100 | > 100 | > 100 µM | > 100 | > 100 µM | 14.4 | > 100 µM | > 100 | > 100 | > 100 µM | > 100 | 41 | > 100 µM | > 100 | > 100 µM |  | > 100 | 92.9 | 82.2
